Data on 15 molecules can be found in publication PMC6478719 (Communications Biology, 2019).

This experiment concerns the target T1, Olfr73 (Mus musculus, UniProt Q920P2).
T1 construct: expressed in transfected cells; host or cells: Hana3A cells (HEK293T-derived), co-transfected with pRTP1S and pCRE-SEAP
T1 sequence (Q920P2 1-313): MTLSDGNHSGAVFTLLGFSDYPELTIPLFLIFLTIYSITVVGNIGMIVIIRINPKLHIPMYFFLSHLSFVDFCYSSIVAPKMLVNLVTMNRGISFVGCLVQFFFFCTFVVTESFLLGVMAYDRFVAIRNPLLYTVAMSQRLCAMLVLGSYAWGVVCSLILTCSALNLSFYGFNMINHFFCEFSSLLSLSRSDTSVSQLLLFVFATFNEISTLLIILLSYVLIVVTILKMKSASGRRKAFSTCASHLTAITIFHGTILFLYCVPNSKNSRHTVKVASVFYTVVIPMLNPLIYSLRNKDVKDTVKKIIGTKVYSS
Nature of the experiment: SEAP reporter assay (cAMP signalling) of Olfr73 activation in Hana3A cells. It counts as cell-based. As to the method:
As described in detail elsewhere[16],[45],[47] HEK293T-derived Hana3A cells (provided by Prof. Matsunami, Duke University, USA) were grown in DMEM/F12 medium (Invitrogen, Netherlands) supplemented with 10% fetal calf serum (FCS) (Invitrogen, Netherlands), maintained under selective conditions with 1 μg/ml of puromycin (Sigma, Switzerland) and kept in the incubator at 37 °C and 5% CO2. Cells were transfected with plasmid DNA using Lipofectamine 2000 (Invitrogen, Netherlands).
The assays were performed as described in detail elsewhere[16],[45],[47] twenty hours before transfection Hana3A cells were seeded into 96 wells (Greiner, Germany) at a concentration of 3.5 × 10^6 cells per ml of medium. 75 ng of pRTP1S, 150 ng of the cAMP response element fused to the secreted alkaline phosphatase (pCRE-SEAP)[89] and either 75 ng of pOlfr73[47] or 75 ng of calf thymus DNA, used as a control, were co-transfected. Compounds to be tested (Sigma, Switzerland) were diluted in DMEM/F12 without FCS and added to the cells 7 h after transfection. Cells were incubated for 16 h at 37 °C in the incubator. For the SEAP reporter assay, the culture medium was mixed with an equal volume of 1 M diethanolamine-bicarbonate, pH 9.8, containing 20 mM para-nitrophenyl-phosphate (pNPP) (Sigma, Switzerland) and 1 mM MgCl2 (Sigma, Switzerland). Absorbance was measured at 410 nm using a multiwell absorbance plate reader (Molecular Devices, USA) at 1- to 4-min intervals for a period of 5 min to determine SEAP expression dependent pNPP hydrolysis rates (A410 /min). EC50 values were determined from dose-response curves fitting experimental data with the Hill equation using IGOR Pro software (WaveMetrics):
fx=f(max)/1+EC50/x^n f(x) is the background-corrected response signal at concentration x of the investigated ligand, f(max) the maximal, background-corrected amplitude of the response signal, EC50 the half maximal effective ligand concentration, and n the Hill coefficient. Experiments were performed in triplicate.
(A reporter such as luciferase makes a cellular process visible.)

The mark [1] stands for this setting: Fig. 4, newly found agonists A1-A17, read-out: EC50 (in brackets, Fig. 4).
[2] abbreviates: Supplementary Table 2, cellular assays, triplicate, n.a. = no active response, read-out: EC50.
Setting [3] is: EC50 (μM), Supplementary Table 2, cellular assays, triplicate, n.a. = no active response.
Where [4] appears, read: EC50 (in brackets, Fig. 4), Fig. 4, newly found agonists A1-A17.

Molecules are shown by their SMILES. Read-outs that look alike come from different tables or passages of the source.

For the molecule `CCCCCC1CCC(=O)CC1` [A6, 4-pentylcyclohexanone], the EC50 (as a rule, the concentration that produces a half-maximal response) under setting [1] came out at 63 µM and the EC50 under setting [2] came to 63.1 ± 1.5 µM.

Regarding `COc1cc2ccccc2cc1OC` [A10, 2,3-dimethoxynaphthalene], the EC50 under setting [2] is 120 ± 1 µM.

Consider `COc1cc(C(C)(C)C)ccc1O` [A4, 4-tert-butyl-2-methoxyphenol], for which the EC50 came out at 56 µM under setting [1] and 55.6 ± 0.7 µM under setting [2].

As for `C/C=C/c1ccc(OCC)c(OC)c1` [A11, isoeugenylethylether], under setting [2], the EC50 stood at 193 ± 3 µM.

In turn, `CCOC(=O)c1ccc(O)c(OC)c1` [A16, ethylvanillate] gave an EC50 under setting [3] of 505 ± 109 µM.

`CC/C=C/c1ccc(OC)c(OC)c1` [A8, (E)-4-(but-1-en-1-yl)-1,2-dimethoxybenzene]: the EC50 by setting is: under setting [4], 93 µM; under setting [3], 92.5 ± 0.9 µM.

Regarding `CC(=O)c1cc(C)c(O)c(C)c1` [A13, 4-hydroxy-3,5-dimethylacetophenone], under setting [2], the EC50 is 250 ± 3 µM.

Turning to `C=CCc1cc(C(C)=O)ccc1O` [A9, 1-(3-allyl-4-hydroxyphenyl)-ethanone], the EC50 runs as follows: under setting [4], 97 µM; under setting [3], 96.9 ± 1.7 µM.

`CCCc1ccc(O)c(OC)c1` [A5, dihydroeugenol]: under setting [3], the EC50 turned out to be 61 ± 6.9 µM.

For `Oc1ccc(C2CCCCC2)cc1` [A3, 4-cydohexyl-phenol], the EC50 runs as follows: under setting [4], 51 µM; under setting [3], 50.8 ± 0.5 µM.

Regarding `CC(C)=C[C@H]1C[C@H](C)CCO1` [A17, (2R,4R)-4-methyl-2-(2-methylprop-1-en-1-yl)-tetrahydro-2H-pyran], the EC50 under setting [2] was determined as 627 ± 62 µM.

As to `COc1cc2c(cc1OC)CCCC2` [A7, 6,7-dimethoxy-1,2,3,4-tetrahydronaphthalene], the EC50 runs as follows: under setting [1], 88 µM; under setting [2], 88.4 ± 1.3 µM.

Regarding `CC(=O)c1cc(C)c(O)cc1C` [A2, 2’,5’-dimethyl -4’hydroxyacetophenone], under setting [2], the EC50 was found to be 16 ± 1.5 µM.

Take `CCC(=O)c1ccc(O)cc1` [A15, 4-hydroxypropiophenone]: under setting [2], the EC50 was 502 ± 315 µM.

`CC(C)Cc1ccc(O)cc1` [A1, p-isobutylphenol]: the 50% effective concentration (EC50) by setting is: under setting [1], 13 µM; under setting [2], 12.9 ± 0.9 µM. Also, the “agonist activity at Olfr73 (SEAP signal)” value (Hana3A cells, compounds predicted from virtual screening) is listed as “most potent ligand”.
